The values that follow come from patent US7807690B2, “2,3-dihydro-iminoisoindole derivatives” (Eisai R&D Management Co., Ltd., priority 2007, dated 2010).

pIC50: −log10 of the molar value. Structures can show the parent of a compound that is named as a salt.

T1 sequence (P08709 213-466 limits assumed): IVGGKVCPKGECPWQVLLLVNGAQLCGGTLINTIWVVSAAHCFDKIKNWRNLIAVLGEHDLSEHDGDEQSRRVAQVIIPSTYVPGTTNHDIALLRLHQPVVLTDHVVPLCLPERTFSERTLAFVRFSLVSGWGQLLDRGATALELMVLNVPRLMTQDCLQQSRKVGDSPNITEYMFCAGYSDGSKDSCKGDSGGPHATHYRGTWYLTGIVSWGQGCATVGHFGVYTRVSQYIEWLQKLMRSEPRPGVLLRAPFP
T1 sequence (P08709 61-212 limits assumed): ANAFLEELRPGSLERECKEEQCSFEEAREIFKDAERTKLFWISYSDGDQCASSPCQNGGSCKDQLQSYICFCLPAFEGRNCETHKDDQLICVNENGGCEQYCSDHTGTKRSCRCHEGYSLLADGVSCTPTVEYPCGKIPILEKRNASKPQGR
T1 sequence (P13726 33-295 partner): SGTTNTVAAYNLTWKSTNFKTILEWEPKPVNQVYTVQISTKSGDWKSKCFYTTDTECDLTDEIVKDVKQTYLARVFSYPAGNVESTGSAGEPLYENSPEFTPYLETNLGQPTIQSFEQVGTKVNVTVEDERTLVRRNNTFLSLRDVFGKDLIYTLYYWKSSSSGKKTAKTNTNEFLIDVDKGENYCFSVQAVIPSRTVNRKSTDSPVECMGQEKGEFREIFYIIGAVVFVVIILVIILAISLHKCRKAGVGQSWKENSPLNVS

The experiment addresses T1, human clotting factor VIIa (Homo sapiens, UniProt P08709).
T1 construct: a human clotting factor VIIa (hereinafter, “Factor VIIa”) purified sample; purchased Enzyme Research Laboratories HFVIIa
The experiment in a line: Inhibiting activity against clotting factor VIIa (chromogenic substrate Spectrozyme FVIIa, TF/Factor VIIa enzyme solution). Type of experiment: biochemical. As to conditions: 10 nmol/L human TF, 5 nmol/L Factor VIIa, room temperature 40 minutes, 405 nm. The procedure: A dimethyl sulfoxide (DMSO) solution was prepared with an invention compound concentration of 10 mmol/L (10 mmol/L compound solution).
One packet of tris-hydroxymethylaminomethane-preset (hereinafter referred to as “Tris preset”)(Product of Sigma Corp., Catalog No. T8293), 8.8 g of sodium chloride (NaCl) and 1 g of bovine serum albumin (hereinafter abbreviated as “BSA”) were dissolved in 1 L of water to prepare a Tris-BSA buffer (100 mmol/L Tris, 0.15 mol/L NaCl, 0.1% BSA, pH 7.4).
The Tris-BSA buffering solution (180 μL) was added to the aforementioned 10 mmol/L compound solution (20 μL). The mixture was provided for a 10-fold dilution series using the aforementioned Tris-BSA buffering solution to prepare solutions with compound concentrations of 1.0 mmol/L, 100, 10, 1, 0.1, 0.01 and 0.001 μmol/L (1.0 mmol-0.001 μmol/L compound solutions).
As a control, a solution was prepared by 10-fold dilution of DMSO with the Tris-BSA buffer (hereinafter referred to as “control 10% solution”).
After dissolving one pack of Tris-Preset, NaCl (8.8 g) and BSA (1 g) in water (approximately 900 mL), a 1 mol/L calcium chloride (CaCl2) aqueous solution (15 mL) and a 1 mg/mL Cephalin aqueous solution (30 mL) were added, and water was added to a total volume of 1 L. To this solution there was added a human tissue factor (hereinafter, “TF”) sample (product of Calbiochem, Catalog No. 612151)(450 μg) to a TF sample concentration of 10 nmol/L, and then a human clotting factor VIIa (hereinafter, “Factor VIIa”) purified sample (product of Enzyme Research Laboratories, Catalog No. HFVIIa)(250 μg) was added to a Factor VIIa purified sample concentration of 5 nmol/L, to prepare an enzyme solution (100 mmol/L Tris-HCl, 0.15 mol/L NaCl, 15 mmol/L CaCl2, 30 μg/mL Cephalin, 1 mg/mL BSA, 10 nmol/L TF, 5 nmol/L Factor VIIa).
To 110 μL of this enzyme solution there was added 15 μL of each of the 1.0-mmol-0.001 μmol/L compound solutions, and then 25 μL of a 1.0 mmol/L synthetic chromogenic substrate solution (Spectrozyme FVIIa, product of American Diagnostica, Catalog No. 217L) was added and the mixture was allowed to stand at room temperature for 40 minutes. The amount of 4-nitroanilide released into the solution was quantified by spectrophotometry (405 nm).
A control […] was used in place of the compound solution for measurement in the same manner as a control.
The enzyme reaction inhibition was determined based on this measurement in the presence of the compounds of the invention from 100 μmol/L to 0.1 nmol/L. The IC50 value of each compound as an index of inhibiting activity against clotting factor VIIa was calculated based on nonlinear regression analysis of the enzyme reaction inhibition at each compound concentration.
Compound `COc1cc(C(Nc2ccc3c(c2)CNC3=N)c2nn(-c3ncsc3C(=O)O)c(=O)[nH]2)c(F)c2c1OCCC2` (single isomer, unassigned) [Example 1] had a pIC50 of 7.42. With `COc1cc(C(Nc2ccc3c(c2)CNC3=N)c2nn(-c3ncccc3N)c(=O)[nH]2)cc2c1OCOC2` (single isomer, unassigned) [Example 2, acetate], the negative-log IC50 (pIC50) was 7.89. As for `COc1cc(C(Nc2ccc3c(c2)CNC3=N)c2nn(-c3ncccn3)c(=O)[nH]2)cc2c1OCOC2` (single isomer, unassigned) [Example 5], the pIC50 is 7.70. Compound `COc1cc(C(Nc2ccc3c(c2)CNC3=N)c2nn(-c3ccsc3C(=O)O)c(=O)[nH]2)cc2c1OCOC2` (single isomer, unassigned) [Example 7] gave a pIC50 of 8.52. The result for `COc1cc(F)c(C(Nc2ccc3c(c2)CNC3=N)c2nn(-c3ccccc3N)c(=O)[nH]2)cc1OC` (single isomer, unassigned) [Example 10, acetate] reads 7.92; that for `CCc1cc(OCCO)c(F)c(C(Nc2ccc3c(c2)CNC3=N)c2nn(-c3ncccc3N)c(=O)[nH]2)c1` (single isomer, unassigned) [Example 16, Acetate], 8.52.

`CCc1cc(OCCO)c(F)c(C(Nc2ccc3c(c2)CNC3=N)c2nn(-c3ccsc3C(=O)O)c(=O)[nH]2)c1` (single isomer, unassigned) [Example 17] showed a pIC50 of 8.70. In turn, `CCc1cc(OCCN(C)C)c(F)c(C(Nc2ccc3c(c2)CNC3=N)c2nn(-c3ncccn3)c(=O)[nH]2)c1` (centres unmarked) [Example 3, 5-{[3-(2-Dimethylaminoethoxy)-5-ethyl-2-fluorophenyl]-(1-imino-2,3-dihydro-1H-isoindol-5-ylamino)methyl}-2-pyrimidin-2-yl-2,4-dihydro-[1,2,4]triazol-3-one Bistrifluoroacetate] had a pIC50 of 7.60.

`CCc1cc(OCCO)c(F)c(C(Nc2ccc3c(c2)CNC3=N)c2nn(-c3ncccn3)c(=O)[nH]2)c1` (centres unmarked) [Example 4, 5-{[5-Ethyl-2-fluoro-3-(2-hydroxyethoxy)phenyl]-(1-imino-2,3-dihydro-1H-isoindol-5-ylamino)methyl}-2-pyrimidin-2-yl-2,4-dihydro-[1,2,4]triazol-3-one] showed a pIC50 of 7.85. Compound `COc1cc(OCCO)c(F)c(C(Nc2ccc3c(c2)CNC3=N)c2nn(-c3ncsc3C(=O)O)c(=O)[nH]2)c1` (centres unmarked) [Example 6, 4-(3-{[2-Fluoro-3-(2-hydroxyethoxy)-5-methoxyphenyl]-(1-imino-2,3-dihydro-1H-isoindol-5-ylamino)methyl}-5-oxo-4,5-dihydro-[1,2,4]triazol-1-yl)thiazole-5-carboxylic Acid] had a pIC50 of 6.91.

On to `CCc1cc(OCCN(C)C)c(F)c(C(Nc2ccc3c(c2)CNC3=N)c2nn(-c3ccccc3N)c(=O)[nH]2)c1` (centres unmarked) [Example 8, 2-(2-Aminophenyl)-5-{[3-(2-dimethylaminoethoxy)-5-ethyl-2-fluorophenyl]-(1-imino-2,3-dihydro-1H-isoindol-5-ylamino)methyl}-2,4-dihydro-[1,2,4]triazol-3-one bistrifluoroacetate], for which the pIC50 was 7.82. With `COc1cc(F)c(C(Nc2ccc3c(c2)CNC3=N)c2nn(-c3nc[nH]c3C(=O)O)c(=O)[nH]2)cc1OC` (centres unmarked) [Example 9, 5-{3-[(2-Fluoro-4,5-dimethoxyphenyl)-(1-imino-2,3-dihydro-1H-isoindol-5-ylamino)methyl]-5-oxo-4,5-dihydro-[1,2,4]triazol-1-yl}-3H-imidazole-4-carboxylic Acid], the pIC50 was 7.38. As for `COc1cc(OCCO)c(F)c(C(Nc2ccc3c(c2)CNC3=N)c2nn(-c3ncoc3C(=O)O)c(=O)[nH]2)c1` (centres unmarked) [Example 11, 4-(3-{[2-Fluoro-3-(2-hydroxyethoxy)-5-methoxyphenyl]-(1-imino-2,3-dihydro-1H-isoindol-5-ylamino)methyl}-5-oxo-4,5-dihydro-[1,2,4]triazol-1-yl)oxazole-5-carboxylic acid], the pIC50 was 6.62. This pIC50 is 0.76 log units lower than that of the compound before. Take `COc1cc(F)c(C(Nc2ccc3c(c2)CNC3=N)c2nn(-c3cccc[n+]3[O-])c(=O)[nH]2)cc1OC` (centres unmarked) [Example 12, 5-[(2-Fluoro-4,5-dimethoxyphenyl)-(1-imino-2,3-dihydro-1H-isoindol-5-ylamino)methyl]-2-(1-oxypyridin-2-yl)-2,4-dihydro-[1,2,4]triazol-3-one]: the pIC50 was 6.79. In the case of `COc1cc(F)c(C(Nc2ccc3c(c2)CNC3=N)c2nn(-c3ccccc3C(=O)O)c(=O)[nH]2)cc1OC` (centres unmarked) [Example 13, 2-{3-[(2-Fluoro-4,5-dimethoxyphenyl)-(1-imino-2,3-dihydro-1H-isoindol-5-ylamino)methyl]-5-oxo-4,5-dihydro-[1,2,4]triazol-1-yl}benzoic Acid Trifluoroacetate], the pIC50 was 8.40. This pIC50 is 1.61 log units higher than that of the compound before.

As to `COc1cc(OC)c(F)c(C(Nc2ccc3c(c2)CNC3=N)c2nn(-c3ccccc3[N+](=O)[O-])c(=O)[nH]2)c1` (centres unmarked) [Example 14, 5-[(2-Fluoro-3,5-dimethoxyphenyl)-(1-imino-2,3-dihydro-1H-isoindol-5-ylamino)methyl]-2-(2-nitrophenyl)-2,4-dihydro-[1,2,4]triazol-3-one trifluoroacetate], the pIC50 is 7.89. Under `COc1cc(F)c(C(Nc2ccc3c(c2)CNC3=N)c2nn(-c3n[nH]cc3C(=O)O)c(=O)[nH]2)cc1OC` (centres unmarked) [Example 15, 3-{3-[(2-Fluoro-4,5-dimethoxyphenyl)-(1-imino-2,3-dihydro-1H-isoindol-5-ylamino)methyl]-5-oxo-4,5-dihydro-[1,2,4]triazol-1-yl}-1H-pyrazole-4-carboxylic Acid] stands 6.68.
